Patent US20240423207A1, “PICOLINAMIDE COMPOUNDS WITH FUNGICIDAL ACTIVITY” (CORTEVA AGRISCIENCE LLC, priority 2014, published 2024)
Like-named read-outs stand apart in the source and are kept apart here.

How the values were obtained:
[1] = test system: Mycosphaerella graminicola; Anamorph: Septoria tritici; assay: Leaf Blotch of Wheat (SEPTTR) fungicidal activity on wheat seedlings; type: in vivo; conditions: Zymoseptoria tritici; for pest or weed control at 121.5 g/ha: Low Volume, 121.5 g/H; for pest or weed control at 100 ppm: High Volume
Description: Example A: Evaluation of Fungicidal Activity: Leaf Blotch of Wheat (Mycosphaerella graminicola; Anamorph: Septoria tritici; Bayer code […]): Technical grades of materials were dissolved in acetone, which were then mixed with nine volumes of water (H2O) containing 110 ppm Triton X-100. The fungicide solutions were applied onto wheat seedlings using an automated booth sprayer to run-off. All sprayed plants were allowed to air dry prior to further handling. All fungicides were evaluated using the aforementioned method for their activity vs. all target diseases, unless stated otherwise. Wheat leaf blotch and brown rust activity were also evaluated using track spray applications, in which case the fungicides were formulated as EC formulations, containing 0.1% Trycol 5941 in the spray solutions. Wheat plants (variety Yuma) were grown from seed in a greenhouse in 50% mineral soil/50% soil-less Metro mix until the first leaf was fully emerged, with 7-10 seedlings per pot. These plants were inoculated with an aqueous spore suspension of Septoria tritici either prior to or after fungicide treatments. After inoculation the plants were kept in 100% relative humidity (one day in a dark dew chamber followed by two to three days in a lighted dew chamber at 20° C.) to permit spores to germinate and infect the leaf. The plants were then transferred to a greenhouse set at 20° C. for disease to develop. When disease symptoms were fully expressed on the 1st leaves of untreated plants, infection levels were assessed on a scale of 0 to 100 percent disease severity. Percent disease control was calculated using the ratio of disease severity on treated plants relative to untreated plants.

[2] = test system: Puccinia triticina; Synonym: Puccinia recondita f sp. tritici; assay: Wheat Brown Rust (PUCCRT) fungicidal activity on wheat seedlings; type: in vivo; conditions: for pest or weed control at 121.5 g/ha: Low Volume, 121.5 g/H; for pest or weed control at 100 ppm: High Volume
Description: Technical grades of materials were dissolved in acetone, which were then mixed with nine volumes of water (H2O) containing 110 ppm Triton X-100. The fungicide solutions were applied onto wheat seedlings using an automated booth sprayer to run-off. All sprayed plants were allowed to air dry prior to further handling. All fungicides were evaluated using the aforementioned method for their activity vs. all target diseases, unless stated otherwise. Wheat leaf blotch and brown rust activity were also evaluated using track spray applications, in which case the fungicides were formulated as EC formulations, containing 0.1% Trycol 5941 in the spray solutions. Wheat plants (variety Yuma) were grown from seed in a greenhouse in 50% mineral soil/50% soil-less Metro mix until the first leaf was fully emerged, with 7-10 seedlings per pot. These plants were inoculated with an aqueous spore suspension of Septoria tritici either prior to or after fungicide treatments. After inoculation the plants were kept in 100% relative humidity (one day in a dark dew chamber followed by two to three days in a lighted dew chamber at 20° C.) to permit spores to germinate and infect the leaf. The plants were then transferred to a greenhouse set at 20° C. for disease to develop. When disease symptoms were fully expressed on the 1st leaves of untreated plants, infection levels were assessed on a scale of 0 to 100 percent disease severity. Percent disease control was calculated using the ratio of disease severity on treated plants relative to untreated plants. Example B: Evaluation of Fungicidal Activity: Wheat Brown Rust (Puccinia triticina; Synonym: Puccinia recondita f sp. tritici; Bayer code PUCCRT): Wheat plants (variety Yuma) were grown from seed in a greenhouse in 50% mineral soil/50% soil-less Metro mix until the first leaf was fully emerged, with 7-10 seedlings per pot. These plants were inoculated with an aqueous spore suspension of Puccinia triticina either prior to or after fungicide treatments. After inoculation the plants were kept in a dark dew room at 22° C. with 100% relative humidity overnight to permit spores to germinate and infect the leaf. The plants were then transferred to a greenhouse set at 24° C. for disease to develop. Fungicide formulation, application and disease assessment followed the procedures as described in the Example A.

[3] = 24 h, 1 Day Protectant, read-out: SEPTTR 1DP disease control
[4] = 72 h, 3 Day Curative, read-out: SEPTTR 3DC disease control
[5] = 24 h, 1 Day Protectant, read-out: PUCCRT 1DP disease control
[6] = 72 h, 3 Day Curative, read-out: PUCCRT 3DC disease control

Row | SMILES | pest or weed control at 121.5 g/ha [1, 3] [%] | pest or weed control at 121.5 g/ha [1, 4] [%] | pest or weed control at 121.5 g/ha [2, 5] [%] | pest or weed control at 121.5 g/ha [2, 6] [%] | pest or weed control at 100 ppm [1, 3] [%] | pest or weed control at 100 ppm [1, 4] [%] | pest or weed control at 100 ppm [2, 5] [%] | pest or weed control at 100 ppm [2, 6] [%]
1 | COc1ccnc(C(=O)N[C@@H](CC(C)C)C(=O)O[C@@H](C)C(c2ccc(F)cc2)c2ccc(F)cc2)c1OCOC(C)=O [Cmpd 186] | > 80 | < 80 | < 80 |  |  |  |  | 
2 | COc1ccnc(C(=O)N[C@@H](C)C(=O)O[C@@H](C)C(c2ccc(C)cc2)c2ccc(C)cc2)c1OC(C)=O [Cmpd 167] | > 80 | > 80 | > 80 | > 80 |  |  |  | 
3 | COc1ccnc(C(=O)N[C@@H](C)C(=O)O[C@@H](C)C(c2ccc(C)c(Cl)c2)c2ccc(C)c(Cl)c2)c1OCOC(C)=O [Cmpd 195] | > 80 | < 80 | > 80 | < 80 |  |  |  | 
4 | CCOC(c1ccccc1)(c1ccccc1)[C@H](C)OC(=O)[C@H](C)NC(=O)c1nccc(OC)c1O [Cmpd 93] |  |  |  |  | > 80 | < 80 | < 80 | 
5 | COc1ccnc(C(=O)N[C@@H](C)C(=O)O[C@@H](C)C(c2ccc(C)c(F)c2)c2ccc(C)c(F)c2)c1OCOC(C)=O [Cmpd 194] | > 80 | > 80 | > 80 | < 80 |  |  |  | 
6 | COc1ccnc(C(=O)N[C@@H](C)C(=O)O[C@@H](C)C(c2ccc(Cl)c(C)c2)c2ccc(Cl)c(C)c2)c1OC(C)=O [Cmpd 206] | > 80 | > 80 | > 80 | < 80 |  |  |  | 
7 | CC[C@H](NC(=O)c1nccc(OC)c1OCOC(C)=O)C(=O)O[C@@H](C)C(c1ccc(F)cc1)c1ccc(F)cc1 [Cmpd 184] | > 80 | > 80 | > 80 | > 80 |  |  |  | 
8 | COc1ccnc(C(=O)N[C@@H](C)C(=O)O[C@@H](C)C(c2ccc(C)s2)c2ccc(C)s2)c1OC(C)=O [Cmpd 166] | < 80 | < 80 | < 80 |  |  |  |  | 
9 | COc1ccnc(C(=O)N[C@@H](C)C(=O)O[C@@H](C)C(c2ccc(F)c(Cl)c2)c2ccc(F)c(Cl)c2)c1OC(C)=O [Cmpd 216] | > 80 | < 80 | > 80 | < 80 |  |  |  | 
10 | COc1ccnc(C(=O)N[C@@H](C)C(=O)O[C@@H](C)C(c2ccc(F)cc2)c2ccc(F)cc2)c1O [Cmpd 92] |  |  |  |  | > 80 | > 80 | > 80 | > 80
11 | CCc1ccc(C(c2ccc(CC)cc2)[C@H](C)OC(=O)[C@H](C)NC(=O)c2nccc(OC)c2OCOC(C)=O)cc1 [Cmpd 198] | > 80 | > 80 | > 80 | < 80 |  |  |  | 
12 | COc1ccnc(C(=O)N[C@@H](C)C(=O)O[C@@H](C)C(c2ccc(F)cc2)c2ccc(F)cc2)c1OCOC(=O)C(C)C [Cmpd 211] | > 80 | > 80 | > 80 | > 80 |  |  |  | 
13 | COc1ccnc(C(=O)N[C@@H](C)C(=O)O[C@@H](C)C(c2cccc(Cl)c2)c2cccc(Cl)c2)c1OC(C)=O [Cmpd 157] | > 80 | > 80 | > 80 | > 80 |  |  |  | 
14 | C[C@H](NC(=O)c1ncccc1O)C(=O)O[C@@H](C)C(c1ccc(F)cc1)c1ccc(F)cc1 [Cmpd 110] |  |  |  |  | > 80 | > 80 | > 80 | 
15 | COc1ccnc(C(=O)N[C@@H](C)C(=O)O[C@@H](C)C(c2cccc(Cl)c2)c2cccc(Cl)c2)c1O [Cmpd 100] |  |  |  |  | > 80 | > 80 | > 80 | > 80
16 | CCCCC(=O)Oc1c(OC)ccnc1C(=O)N[C@@H](C)C(=O)O[C@@H](C)C(c1ccc(F)cc1)c1ccc(F)cc1 [Cmpd 213] | > 80 | > 80 | < 80 | < 80 |  |  |  | 
17 | COc1ccnc(C(=O)N[C@@H](C)C(=O)O[C@@H](C)C(c2ccc(F)c(F)c2)c2ccc(F)c(F)c2)c1OC(C)=O [Cmpd 215] | > 80 | > 80 | > 80 |  |  |  |  | 
18 | COc1ccnc(C(=O)N[C@@H](C)C(=O)O[C@@H](C)C(c2cccs2)c2cccs2)c1OCOC(C)=O [Cmpd 144] | < 80 | < 80 | < 80 | < 80 |  |  |  | 
19 | COc1ccnc(C(=O)N[C@@H](C)C(=O)O[C@@H](C)C(c2ccc(C)c(Cl)c2)c2ccc(C)c(Cl)c2)c1O [Cmpd 121] |  |  |  |  | > 80 | > 80 | > 80 | < 80
20 | COc1ccccc1C(c1ccccc1OC)[C@H](C)OC(=O)[C@H](C)NC(=O)c1nccc(OC)c1O [Cmpd 117] |  |  |  |  | > 80 | > 80 | > 80 | < 80
21 | COc1cccc(C(c2cccc(OC)c2)[C@H](C)OC(=O)[C@H](C)NC(=O)c2nccc(OC)c2O)c1 [Cmpd 118] |  |  |  |  | < 80 | > 80 | > 80 | > 80
22 | CCOCC(=O)OCOc1c(OC)ccnc1C(=O)N[C@@H](C)C(=O)O[C@@H](C)C(c1ccc(F)cc1)c1ccc(F)cc1 [Cmpd 212] | > 80 | > 80 | > 80 | > 80 |  |  |  | 
23 | COc1ccnc(C(=O)N[C@@H](C)C(=O)O[C@@H](C)[C@@H](c2ccccc2)c2ccc(C(F)(F)F)cc2)c1OC(C)=O [Cmpd 173] | > 80 | > 80 | > 80 | < 80 |  |  |  | 
24 | COc1ccnc(C(=O)N[C@@H](C)C(=O)O[C@@H](C)[C@@H](c2ccccc2)c2ccc(F)cc2)c1O [Cmpd 125] |  |  |  |  | > 80 | > 80 | > 80 | > 80
25 | COc1ccc(C(c2ccc(OC)cc2)[C@H](C)OC(=O)[C@H](C)NC(=O)c2nccc(OC)c2OCOC(C)=O)cc1 [Cmpd 158] | > 80 | > 80 | > 80 | > 80 |  |  |  | 
26 | COc1ccnc(C(=O)N[C@@H](C)C(=O)O[C@@H](C)C(c2cccc(Cl)c2)c2cccc(Cl)c2)c1OCOC(C)=O [Cmpd 160] | > 80 | > 80 | > 80 | < 80 |  |  |  | 
27 | COc1ccnc(C(=O)N[C@H](C(=O)O[C@@H](C)C(c2ccc(F)cc2)c2ccc(F)cc2)C(C)C)c1OC(C)=O [Cmpd 189] | > 80 | > 80 | > 80 | < 80 |  |  |  | 
